PubChem BioAssay (NCI)
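Results reflect a 48-hour exposure of cells in 96-well plates to compound at five concentrations. Abbreviation: GI50, concentration required for 50% inhibition of growth. At the TGI there is no net growth.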

What was measured:
Experiment in all cases: NCI-60 cell line screen, 48 h
SF-539 CNS = test system: SF-539 CNS
HOP-18 NSCLC = test system: HOP-18 NSCLC
DU-145 prostate = test system: DU-145 prostate
DMS 114 small cell lung = test system: DMS 114 small cell lung
M19-MEL melanoma = test system: M19-MEL melanoma
NCI/ADR-RES ovarian = test system: NCI/ADR-RES ovarian
SK-MEL-2 melanoma = test system: SK-MEL-2 melanoma
EKVX NSCLC = test system: EKVX NSCLC
SW-620 colon = test system: SW-620 colon
SNB-75 CNS = test system: SNB-75 CNS
ACHN renal = test system: ACHN renal
MALME-3M melanoma = test system: MALME-3M melanoma
HCC-2998 colon = test system: HCC-2998 colon
PC-3 prostate = test system: PC-3 prostate
NCI-H23 lung = test system: NCI-H23 lung
MDA-MB-435 = test system: MDA-MB-435
K-562 leukemia = test system: K-562 leukemia
M14 melanoma = test system: M14 melanoma

C[CH2][Sn]([CH2]C)([O]C(=O)c1cccc(OC)c1)[O][Sn]([CH2]C)([CH2]C)[O]C(=O)c1cccc(OC)c1
GI50 (SF-539 CNS): 16.4 µM
TGI (SF-539 CNS): 30.4 µM
GI50 (HOP-18 NSCLC): 15.9 µM
TGI (HOP-18 NSCLC): 29.3 µM
GI50 (DU-145 prostate): > 100 µM
TGI (DU-145 prostate): > 100 µM
GI50 (DMS 114 small cell lung): 15.9 µM
TGI (DMS 114 small cell lung): 30.1 µM
GI50 (M19-MEL melanoma): 17.1 µM
TGI (M19-MEL melanoma): 31.7 µM
GI50 (NCI/ADR-RES ovarian): > 100 µM
TGI (NCI/ADR-RES ovarian): > 100 µM
GI50 (SK-MEL-2 melanoma): 16.6 µM
TGI (SK-MEL-2 melanoma): 37.4 µM
GI50 (EKVX NSCLC): > 40.8 µM
TGI (EKVX NSCLC): > 55.6 µM
GI50 (SW-620 colon): 16.7 µM
TGI (SW-620 colon): 33.1 µM
GI50 (SNB-75 CNS): 14.6 µM
TGI (SNB-75 CNS): 42.2 µM
GI50 (ACHN renal): 17.1 µM
TGI (ACHN renal): 31.4 µM
GI50 (MALME-3M melanoma): 15 µM
TGI (MALME-3M melanoma): 30.4 µM
GI50 (HCC-2998 colon): > 76 µM
TGI (HCC-2998 colon): > 100 µM
GI50 (PC-3 prostate): > 100 µM
TGI (PC-3 prostate): > 100 µM
GI50 (NCI-H23 lung): 17.6 µM
TGI (NCI-H23 lung): 36.2 µM
GI50 (MDA-MB-435): 18.8 µM
TGI (MDA-MB-435): 42.4 µM
GI50 (K-562 leukemia): 9.4 µM
TGI (K-562 leukemia): 60.3 µM
GI50 (M14 melanoma): 30.9 µM
TGI (M14 melanoma): > 59.4 µM
